Biological target: T1, Renin (Homo sapiens, UniProt P00797)
T1 sequence (P00797 whole entry): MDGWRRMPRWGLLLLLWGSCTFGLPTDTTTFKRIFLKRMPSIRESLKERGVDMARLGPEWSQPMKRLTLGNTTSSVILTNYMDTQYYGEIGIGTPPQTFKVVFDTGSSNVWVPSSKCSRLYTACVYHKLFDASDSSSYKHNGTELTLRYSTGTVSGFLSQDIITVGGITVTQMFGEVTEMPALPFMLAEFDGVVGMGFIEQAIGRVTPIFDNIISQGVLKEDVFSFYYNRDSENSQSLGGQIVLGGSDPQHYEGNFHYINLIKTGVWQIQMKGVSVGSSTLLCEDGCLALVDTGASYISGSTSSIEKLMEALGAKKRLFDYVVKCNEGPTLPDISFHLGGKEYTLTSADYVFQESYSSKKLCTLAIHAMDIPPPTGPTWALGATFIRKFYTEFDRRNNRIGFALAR
Test: Inhibitory activity against human plasma renin
Format: cell-free

Row | Structure (SMILES) | IC50
1 | CCCC[C@H](NC(=O)CCc1ccccc1)C(=O)N[C@@H](CC(C)C)[C@@H](O)C[C@H](C(=O)N[C@H](C(=O)NCc1ccccn1)[C@H](C)CC)C(C)C | 120 nM
2 | CCCC[C@H](NC(=O)CCc1ccccc1)C(=O)N[C@@H](CC(C)C)[C@@H](O)CC(=O)N[C@H](C(=O)NCc1ccccn1)[C@H](C)CC | 350 nM
3 | CCCC[C@@H](C(=O)N[C@@H](CC(C)C)[C@@H](O)C[C@H](C(=O)N[C@H](C(=O)NCc1ccccn1)[C@H](C)CC)C(C)C)N1CCC(Cc2ccccc2)(NC(=O)OCc2ccccc2)C1=O (stereo in doubt; form 1) | 6.5 nM
4 | CCCC[C@@H](C(=O)N[C@@H](CC(C)C)[C@@H](O)C[C@H](C(=O)N[C@H](C(=O)NCc1ccccn1)[C@@H](C)CC)C(C)C)N1CCC(Cc2ccccc2)C1=O (stereo in doubt; form 2) | 14 nM
5 | CCCC[C@@H](C(=O)N[C@@H](CC(C)C)[C@@H](O)C[C@H](C(=O)N[C@H](C(=O)NCc1ccccn1)[C@@H](C)CC)C(C)C)N1CCC(Cc2ccccc2)C1=O (stereo in doubt; form 1) | 27 nM
6 | CCCC[C@@H](C(=O)N[C@@H](CC(C)C)[C@@H](O)C[C@H](C(=O)N[C@H](C(=O)NCc1ccccn1)[C@H](C)CC)C(C)C)N1CCC(Cc2ccccc2)(NC(=O)OCc2ccccc2)C1=O (stereo in doubt; form 2) | 6.5 nM
7 | CCCC[C@H](NC(=O)[C@H](Cc1ccccc1)NC(=O)OCc1ccccc1)C(=O)N[C@@H](CC(C)C)[C@@H](O)C[C@H](C(=O)N[C@H](C(=O)NCc1ccccn1)[C@H](C)CC)C(C)C | 26 nM

Biological target: T2, Renin (Homo sapiens) (UniProt P00797)
T2 sequence (whole entry): T1 sequence (P00797 whole entry)
Test: Inhibitory activity against human plasma renin at 10e-5 M
Format: cell-free

Row | Structure (SMILES) | inhibition
8 | CCCC[C@@H](C(=O)N[C@@H](CC(C)C)[C@@H](O)CC(=O)N[C@H](C(=O)NCc1ccccn1)[C@H](C)CC)N1CCC(Cc2ccccc2)C1=O (stereo in doubt; form 2) | 46%
9 | CCCC[C@@H](C(=O)N[C@@H](CC(C)C)[C@@H](O)CC(=O)N[C@H](C(=O)NCc1ccccn1)[C@H](C)CC)N1CCC(Cc2ccccc2)C1=O (stereo in doubt; form 1) | 46%

Source: ChEMBL document CHEMBL1124152, “Conformationally constrained renin inhibitory peptides: gamma-lactam-bridged dipeptide isostere as conformational restriction” (J Med Chem, 1988)
